Reference: patent US8829007B2 (priority 2009, dated 2014)
Like-named read-outs stand apart in the source and are kept apart here.

Key:
[1] = tested on: A/PR/8/34 influenza virus; assay: microbe, parasite or virus in culture; format: cell-based
[2] = tested on: influenza A virus (A/PR/8/34); assay: microbe, parasite or virus in culture; format: cell-based
[3] = Influenza A virus, PR/8, MDCK, MDCK cells infected with A/PR/8/34, replication of influenza virus (viral RNA, bDNA), class symbols, read-out: EC50 (mean all)
[4] = Influenza A virus, PR/8, MDCK, MDCK cells infected with A/PR/8/34, survival of infected cells, class symbols, read-out: IC50 (mean all)
[5] = mean all, bDNA viral RNA in MDCK cells infected with A/PR/8/34, read-out: EC50
[6] = mean all, MDCK cells infected with A/PR/8/34, cell protection (CPE), read-out: IC50
[7] = Influenza A virus, PR/8, MDCK, MDCK cells infected with A/PR/8/34, bDNA viral RNA, read-out: EC50 (mean all)
[8] = Influenza A virus, PR/8, MDCK, MDCK cells infected with A/PR/8/34, cell protection (CPE), read-out: IC50 (mean all)
[9] = Influenza A virus, PR/8, MDCK, read-out: EC50 (mean all)
[10] = Influenza A virus, PR/8, MDCK, read-out: IC50 (mean all)

SMILES	EC50 [1, 7] [µM]	IC50 [2, 8] [µM]	also measured
O=C(O)[C@@H]1CCCC[C@@H]1Nc1nc(-c2c[nH]c3ncc(Cl)cc23)ncc1F (relative stereo) [Compound 559, Cis-2-(2-(5-chloro-1H-pyrrolo[2,3-b]pyridin-3-yl)-5-fluoropyrimidin-4-ylamino)cyclohexanecarboxylic acid]	–	–	EC50 [1, 3]: < 5 µM; IC50 [2, 4]: < 5 µM
CN(C)C(=O)N[C@@H]1CCCC[C@H]1CNc1nc(-c2c[nH]c3ncc(Cl)cc23)ncc1F (relative stereo) [Compound 564, 3-(trans-2-((2-(5-chloro-1H-pyrrolo[2,3-b]pyridin-3-yl)-5-fluoropyrimidin-4-ylamino)methyl)cyclohexyl)-1,1-dimethylurea]	–	–	EC50 [1, 3]: < 5 µM; IC50 [2, 4]: > 10 µM
CC[C@@]1(C(=O)O)CCCC[C@H]1Nc1nc(-c2c[nH]c3ncc(Cl)cc23)ncc1F (relative stereo) [Compound 586, trans-2-(2-(5-chloro-1H-pyrrolo[2,3-b]pyridin-3-yl)-5-fluoropyrimidin-4-ylamino)-1-ethylcyclohexanecarboxylic acid]	–	–	EC50 ([1]; […], replication of influenza virus (viral RNA, bDNA), class symbols, read-out: EC50 (mean all)): < 5 µM; IC50 ([2]; read-out: IC50 (mean all)): < 5 µM
CC1(O)CCCCC1Nc1nc(-c2c[nH]c3ncc(Cl)cc23)ncc1F (single isomer, unassigned) [Compound 563, 2-(2-(5-chloro-1H-pyrrolo[2,3-b]pyridin-3-yl)-5-fluoropyrimidin-4-ylamino)-1-methylcyclohexanol]	–	–	EC50 [1, 3]: < 5 µM; IC50 [2, 4]: < 5 µM
CCNC(=O)OC1CCCC(Nc2nc(-c3c[nH]c4ncc(Cl)cc34)ncc2F)C1 (single isomer, unassigned) [Compound 609]	–	–	EC50 ([1]; bDNA assay, A/PR/8/34 influenza virus replication in MDCK cells, class symbols, read-out: EC50 (mean all)): < 5 µM; IC50 ([2]; CPE assay, A/PR/8/34 infected MDCK cells, class symbols, read-out: IC50 (mean all)): < 5 µM
CCC1(O)CCCC(Nc2nc(-c3c[nH]c4ncc(Cl)cc34)ncc2F)C1 (single isomer, unassigned) [Compound 709]	–	–	EC50 [1, 5]: < 5 µM; IC50 [2, 6]: < 5 µM
CCC1(O)CCCC(Nc2nc(-c3c[nH]c4ncc(Cl)cc34)ncc2F)C1 (single isomer, unassigned) [Compound 710]	–	–	EC50 [1, 5]: < 5 µM; IC50 [2, 6]: < 5 µM
CCNC(=O)OC1(C)CCCC(Nc2nc(-c3c[nH]c4ncc(Cl)cc34)ncc2F)C1 (single isomer, unassigned) [Compound 722]	–	–	EC50 [1, 5]: < 5 µM; IC50 [2, 6]: < 5 µM
O=C(NC1CC2CC(Nc3nc(-c4c[nH]c5ncc(F)cc45)ncc3F)C1C2)N1CCCC1 (single isomer, unassigned) [Compound 1045, N-[6-[[5-fluoro-2-(5-fluoro-1H-pyrrolo[2,3-b]pyridin-3-yl)pyrimidin-4-yl]amino]norbornan-2-yl]pyrrolidine-1-carboxamide]	–	–	EC50 ([1]; Influenza A virus, PR/8, 30 h, HA(−) 30 hr, A/PR/8, bDNA, mean all, read-out: Cell Influenza HA(−) 30 hr A/PR/8 bDNA:bDNA EC50 uM(Mean (All))): < 5 µM; IC50 ([2]; Influenza A virus, PR/8, MDCK, MDCK cells, A/PR/8/34, ATP readout, mean all, read-out: Cell Flu, MDCK protection, ATP (All: IC50: uM)(Mean (All))): < 5 µM
C[C@]1(C(=O)O)CCCC[C@@H]1Nc1nc(-c2c[nH]c3ncc(Cl)cc23)ncc1F (stereo in doubt) [Compound 643, Trans-2-[[2-(5-chloro-1H-pyrrolo[2,3-b]pyridin-3-yl)-5-fluoro-pyrimidin-4-yl]amino]-1-methyl-cyclohexanecarboxylic acid]	–	–	EC50 ([1]; Influenza A virus, PR/8, MDCK, bDNA assay, A/PR/8/34 influenza virus replication in MDCK cells, class symbols, read-out: EC50 (mean all)): < 5 µM; IC50 ([2]; Influenza A virus, PR/8, MDCK, CPE assay, A/PR/8/34 infected MDCK cells, class symbols, read-out: IC50 (mean all)): < 5 µM
OC1CCCC1Nc1nc(-c2c[nH]c3ncc(Cl)cc23)ncc1F (stereo not drawn) [Compound 14, 2-(2-(5-chloro-1H-pyrrolo[2,3-b]pyridin-3-yl)-5-fluoropyrimidin-4-ylamino)cyclopentanol]	< 5	5 to 20	–
CC(C)(C)OC(=O)N1CCC[C@H](CNc2nc(-c3c[nH]c4ncc(Cl)cc34)ncc2F)C1 [Compound 15, (R)-tert-butyl 3-((2-(5-chloro-1H-pyrrolo[2,3-b]pyridin-3-yl)-5-fluoropyrimidin-4-ylamino)methyl)piperidine-1-carboxylate]	< 5	5 to 20	–
C=CCOC(=O)N1CCC[C@@H](CNc2nc(-c3c[nH]c4ncc(Cl)cc34)ncc2F)C1 [Compound 17, (S)-allyl 3-((2-(5-chloro-1H-pyrrolo[2,3-b]pyridin-3-yl)-5-fluoropyrimidin-4-ylamino)methyl)piperidine-1-carboxylate]	< 5	5 to 20	–
O=C(Nc1ccsc1)N1CCC[C@@H](CNc2nc(-c3c[nH]c4ncc(Cl)cc34)ncc2F)C1 [Compound 22, (S)-3-((2-(5-chloro-1H-pyrrolo[2,3-b]pyridin-3-yl)-5-fluoropyrimidin-4-ylamino)methyl)-N-(thiophen-3-yl)piperidine-1-carboxamide]	< 5	< 5	–
COC(=O)N1CCC[C@@H](CNc2nc(-c3c[nH]c4ncc(Cl)cc34)ncc2F)C1 [Compound 23, (S)-methyl 3-((2-(5-chloro-1H-pyrrolo[2,3-b]pyridin-3-yl)-5-fluoropyrimidin-4-ylamino)methyl)piperidine-1-carboxylate]	< 5	< 5	–
CCOC(=O)CNC(=O)N1CCC[C@@H](CNc2nc(-c3c[nH]c4ncc(Cl)cc34)ncc2F)C1 [Compound 25, (S)-ethyl 2-(3-((2-(5-chloro-1H-pyrrolo[2,3-b]pyridin-3-yl)-5-fluoropyrimidin-4-ylamino)methyl)piperidine-1-carboxamido)ethanoate]	< 5	< 5	–
CCOC(=O)NC(=O)N1CCC[C@@H](CNc2nc(-c3c[nH]c4ncc(Cl)cc34)ncc2F)C1 [Compound 26, (S)-ethyl 3-((2-(5-chloro-1H-pyrrolo[2,3-b]pyridin-3-yl)-5-fluoropyrimidin-4-ylamino)methyl)piperidine-1-carbonylcarbamate]	< 5	< 5	–
CC(C)NC(=O)N1CCC[C@@H](CNc2nc(-c3c[nH]c4ncc(Cl)cc34)ncc2F)C1 [Compound 27, (S)-3-((2-(5-chloro-1H-pyrrolo[2,3-b]pyridin-3-yl)-5-fluoropyrimidin-4-ylamino)methyl)-N-isopropylpiperidine-1-carboxamide]	< 5	< 5	–
CC(C)COC(=O)N1CCC[C@@H](CNc2nc(-c3c[nH]c4ncc(Cl)cc34)ncc2F)C1 [Compound 28, (S)-isobutyl 3-((2-(5-chloro-1H-pyrrolo[2,3-b]pyridin-3-yl)-5-fluoropyrimidin-4-ylamino)methyl)piperidine-1-carboxylate]	< 5	> 20	–
CC#CCOC(=O)N1CCC[C@@H](CNc2nc(-c3c[nH]c4ncc(Cl)cc34)ncc2F)C1 [Compound 30, (S)-but-2-ynyl 3-((2-(5-chloro-1H-pyrrolo[2,3-b]pyridin-3-yl)-5-fluoropyrimidin-4-ylamino)methyl)piperidine-1-carboxylate]	–	–	EC50 [1, 9]: < 5 µM; IC50 [2, 10]: 5 to 20 µM
N[C@@H]1CCCC[C@H]1Nc1nc(-c2c[nH]c3ncc(Cl)cc23)ncc1C(F)(F)F [Compound 31, (1R,2R)—N1-(2-(5-chloro-1H-pyrrolo[2,3-b]pyridin-3-yl)-5-(trifluoromethyl)pyrimidin-4-yl)cyclohexane-1,2-diamine]	< 5	< 5	–
CCC(=O)N1CCC[C@@H](CNc2nc(-c3c[nH]c4ncc(Cl)cc34)ncc2F)C1 [Compound 32, (S)-1-(3-((2-(5-chloro-1H-pyrrolo[2,3-b]pyridin-3-yl)-5-fluoropyrimidin-4-ylamino)methyl)piperidin-1-yl)propan-1-one]	< 5	< 5	–
CCOC(=O)N1CCC[C@@H](CNc2nc(-c3c[nH]c4ncc(Cl)cc34)ncc2F)C1 [Compound 33, (S)-ethyl 3-((2-(5-chloro-1H-pyrrolo[2,3-b]pyridin-3-yl)-5-fluoropyrimidin-4-ylamino)methyl)piperidine-1-carboxylate]	< 5	< 5	–
CS(=O)(=O)N1CCC[C@@H](CNc2nc(-c3c[nH]c4ncc(Cl)cc34)ncc2F)C1 [Compound 36, (S)-2-(5-chloro-1H-pyrrolo[2,3-b]pyridin-3-yl)-5-fluoro-N-((1-(methylsulfonyl)-piperidin-3-yl)methyl)pyrimidin-4-amine]	< 5	< 5	–
CC(=O)N1CCC[C@@H](CNc2nc(-c3c[nH]c4ncc(Cl)cc34)ncc2F)C1 [Compound 37, (S)-1-(3-((2-(5-chloro-1H-pyrrolo[2,3-b]pyridin-3-yl)-5-fluoropyrimidin-4-ylamino)methyl)piperidin-1-yl)ethanone]	< 5	< 5	–
C=CCNC(=O)N1CCC[C@@H](CNc2nc(-c3c[nH]c4ncc(Cl)cc34)ncc2F)C1 [Compound 39, (S)—N-allyl-3-((2-(5-chloro-1H-pyrrolo[2,3-b]pyridin-3-yl)-5-fluoropyrimidin-4-ylamino)methyl)piperidine-1-carboxamide]	< 5	< 5	–
CC=CC(=O)N1CCC[C@@H](CNc2nc(-c3c[nH]c4ncc(Cl)cc34)ncc2F)C1 [Compound 41, (S)-1-(3-((2-(5-chloro-1H-pyrrolo[2,3-b]pyridin-3-yl)-5-fluoropyrimidin-4-ylamino)methyl)piperidin-1-yl)but-2-en-1-one]	–	–	EC50 [1, 9]: < 5 µM; IC50 [2, 10]: < 5 µM
